Laboratory results as given in US20050250137A1, “Molecular targets of cancer and aging” (priority 2002, published 2005).
Entries after “also recorded” stand apart in the source; their conditions may differ.

Key:
Type in all cases: cell-based, human
[1] = system: immortal (high passage) MDAH041 cells
[2] = system: normal skin fibroblast cell line 1502 (CRL-1502); experiment: Q-RT-PCR gene expression, normal fibroblasts 1502 treated or untreated with 5-aza-CdR; conditions: before and after 5azaCdR
immortal MDAH041 cells [3] = experiment: Western blot protein expression after 5-aza-dC, immortal MDAH041; conditions: for p16^INK4a protein upregulation: 5-aza-CdR-treated vs untreated immortal MDAH041; for p21 protein levels: 5-aza-dC treatment of immortal MDAH041
Method: Twenty μg of cell extract was boiled for 5 minutes in sample buffer, electrophoresed on a 15% SDS-polyacrylamide gel, and transferred to nitrocellulose. […] The anti-mouse IgG was incubated with the blot for 1 hour at room temperature. The signal was detected by enhanced chemiluminescence. […] Louis, Mo.). Lysates were incubated on ice for 30 minutes followed by centrifugation at 10,000×g. Protein was quantitated using the Bradford Reagent (Sigma, St. Louis, Mo.). Equal amounts of protein were electrophoresed in an appropriate percentage SDS-polyacrylamide gel (SDS-PAGE) and transferred to nitrocellulose membranes. The membranes were incubated with antibodies as indicated. […] The western blots were then incubated with a horseradish peroxidase-conjugated secondary and developed using SuperSignal West Pico (Pierce, Rockford, Ill.). As a control, parallel western blots were probed with α-Tubulin.

immortal MDAH041 cells [4] = experiment: Senescence phenotype (morphology, senescence associated β-galactosidase at pH 6), immortal MDAH041; conditions: immortal MDAH041 high passage treated with 5AZA-dC (1 μM days 1, 3, 5)
Method: The MDAH041 (p53 frameshift mutation) cell line was derived from primary fibroblasts obtained by skin biopsy from patients with LFS. […] All cells were grown in modified Eagles medium (MEM, Gibco BRL, MD, USA) with 10% fetal calf serum and antibiotics. The CRL1502 cell line was derived from primary fibroblasts obtained by skin biopsy from a normal donor (ATCC 1502, Rockville, Md., USA).

[5] = system: immortal MDAH087 cell lines; experiment: Senescence phenotype (morphology, senescence-associated β-galactosidase), immortal MDAH087 cell lines; conditions: 5-aza-dC treatment of immortal MDAH087 cell lines
nonimmortal cells = experiment: Senescence-like state in nonimmortal cells after 5Aza-dC; conditions: nonimmortal cells treated with 5Aza-dC
[6] = Western blot, listed as 5AZA-dC
[7] = Western blot, after 5-aza-dC treatment, MDAH041
[8] = Western blot, immortal MDAH041 treated with 5-aza-dC

Compound: Nc1ncn([C@H]2C[C@H](O)[C@@H](CO)O2)c(=O)n1 [5-aza-dC, 5-aza-2′-deoxycytidine]
- (2-5′) oligoadenylate synthetase E gene OAS1 expression, MDAH041HP vs. MDAH0411HP 5aza [1]: 1072↑ fold
- ALDH1A3 expression, IM vs 5-aza-dC, QP [1]: 7.84 fold
- CIG49 expression, MDAH041HP vs. MDAH0411HP 5aza [1]: 204↑ fold
- CLTB expression, IM vs 5-aza-dC, QP [1]: 2.04 fold
- CREG expression, IM vs 5-aza-dC, QP [1]: 2.88 fold
- HSPA2 expression, IM vs 5-aza-dC, QP [1]: 2.74 fold
- IGFBP3 expression, IM vs 5-aza-dC, QP [1]: 8.29 fold
- IGFBP4 expression, IM vs 5-aza-dC, QP [1]: 7.00 fold
- Interferon-induced 17-kDa/15-kDA expression, MDAH041HP vs. MDAH0411HP 5aza [1]: 443↑ fold
- Interferon-inducible 56 kDa protein expression, MDAH041HP vs. MDAH0411HP 5aza [1]: 1807↑ fold
- Interferon-inducible membrane protein 9-27 (IFITM1) expression, MDAH041HP vs. MDAH0411HP 5aza [1]: 278↑ fold
- Interferon-inducible protein p78 expression, MDAH041HP vs. MDAH0411HP 5aza [1]: 480↑ fold
- Interferon-regulatory factor 7B expression, MDAH041HP vs. MDAH0411HP 5aza [1]: 20031↑ fold
- KIAA1750 expression, IM vs 5-aza-dC, QP [1]: 3.86 fold
- MGSF expression, MDAH041HP vs. MDAH0411HP 5aza [1]: 800↑ fold
- MIF expression, MDAH041HP vs. MDAH0411HP 5aza [1]: 130↑ fold
- NDN expression, MDAH041HP vs. MDAH0411HP 5aza [1]: 10↑ fold
- OPTN expression, IM vs 5-aza-dC, QP [1]: 9.21 fold
- SERPINB2 expression, IM vs 5-aza-dC, QP [1]: 12.90 fold
- STAT 1, 91 kD expression, MDAH041HP vs. MDAH0411HP 5aza [1]: 158↑ fold
- STAT1α expression, IM vs 5-aza-dC, QP [1]: 119.85 fold
- TNFAIP2 expression, IM vs 5-aza-dC, QP [1]: 6.10 fold
- additional increase in hTERT RNA expression [1]: 17 fold
- (2-5′) oligoadenylate synthetase E gene OAS1 expression, 1502 vs. 1502 5aza ([2]; ↑ increase): 2↑ fold
- CIG49 expression, 1502 vs. 1502 5aza ([2]; ↑ increase): 1.1↑ fold
- Interferon-induced 17-kDa/15-kDA expression, 1502 vs. 1502 5aza ([2]; ↑ increase): 1.8↑ fold
- Interferon-inducible protein p78 expression, 1502 vs. 1502 5aza ([2]; ↑ increase): 1.8↑ fold
- Interferon-regulatory factor 7B expression, 1502 vs. 1502 5aza ([2]; ↑ increase): 1.5↑ fold
- STAT 1, 91 kD expression, 1502 vs. 1502 5aza ([2]; ↑ increase): 1.8↑ fold
- Interferon-inducible 56 kDa protein expression, 1502 vs. 1502 5aza ([2]; ↓ decrease): 1.2↓ fold
- Interferon-inducible membrane protein 9-27 (IFITM1) expression, 1502 vs. 1502 5aza ([2]; ↓ decrease): 1.8↓ fold
- MGSF expression, 1502 vs. 1502 5aza ([2]; ↓ decrease): 3.2↓ fold
- MIF expression, 1502 vs. 1502 5aza ([2]; ↓ decrease): 1.7↓ fold
- NDN expression, 1502 vs. 1502 5aza ([2]; ↓ decrease): 1.4↓ fold
- p16^INK4a protein upregulation (immortal MDAH041 cells [3]; Western blot, listed as 5-aza-CdR): over 500 fold
- p16^INK4a protein upregulation (immortal MDAH041 cells [3]; [6]): approximately 500 fold
- p21 protein levels (immortal MDAH041 cells [3]; Western blot): protein expression of both was induced
- p21 protein levels (immortal MDAH041 cells [3]; [6]): not regulated
- IGFBP4 protein (immortal MDAH041 cells [3]; [7]): slight induction; also recorded: little to no induction
- IGFBPrP1 protein (immortal MDAH041 cells [3]; [7]): little to no induction
- p16^INK4a protein expression (immortal MDAH041 cells [3]; [8]): protein expression of both was induced
- protein levels of STAT1α (immortal MDAH041 cells [3]; [8]): increased in response to treatment
- IGFBP3 protein levels (immortal MDAH041 cells [3]; Western blot, response to 5-aza-dC, MDAH041): increased in response to 5-aza-dC
- STAT1 protein upregulation (immortal MDAH041 cells [3]; immortal cells, 5AZA-dC treatment): 4.7 fold
- senescent phenotype of treated cells (immortal MDAH041 cells [4]): had flat morphology, contained lipofuscin granules, and showed senescence associated β-galactosidase activity at pH 6
- senescent phenotype of treated cells [5]: resulted in a flat senescence-like morphology and the activation of the senescence-associated β-galactosidase activity
- induction of senescence-like state (nonimmortal cells): does not result in an induction of an senescence-like state
